Measurements: publication PMC9027581, “Characterization of Constituents with Potential Anti-Inflammatory Activity in Chinese Lonicera Species by UHPLC-HRMS Based Metabolite Profiling” (Metabolites, 2022)

Assays:
IL-8 expression = IL-8 expression in LPS-stimulated HUVECtert cells; type: cell-based; details: for IL-8 % Inhibition (30 µM) / inhibition at 30 µM / IC50: HUVECtert cells stimulated with LPS; for IL-8 % Inhibition (30 µM) / inhibition at 30 µM: means ± SD of 5 replicates, b: one sample pooled from the 5 replicates; for effect on IL-8 expression: pure compound, screening 30 µM
Experimental: (§1) To evaluate the pharmacological activity of the extracts, all extracts were assayed in three different cellular in vitro models that are relevant in the context of inflammation. […] In these cells, the potential impact of the extracts on cell viability was assessed (Figure 2C).
(§2) Assays were performed as previously described. Extracts were dissolved in dimethyl sulfoxide (DMSO) and further diluted in cell culture medium to obtain a final concentration of 50 µg/mL; DMSO at the respective final concentration (<0.1%) was used as vehicle control in each assay. OPLS-DA candidate compounds were also dissolved in DMSO to obtain a final screening concentration of 30 µM.
[…] Impact of test samples on cell viability was determined after 6 h of stimulation by XTT. […] After incubation for 2 h, absorbance was measured at 450 nm. Samples decreasing cell viability by more than 30% were considered to negatively influence cell viability.
(§3) To determine the IC50 values, pure compounds showing significant inhibitory activity at the screening concentration were tested at 5–10 concentrations, each with 4 replicates.

NO production = experiment: NO release from LPS/IFN-γ-stimulated RAW 264.7 macrophages (Griess); type: cell-based, mouse; details: for NO % Inhibition (30 µM) / inhibition at 30 µM: means ± SD of 3 experiments in duplicates; for effect on NO production: pure compound, screening 30 µM
Experimental: as §1, §2
After removing 50 µL of the supernatants to react with Griess reagent (Sigma Aldrich), cells were incubated with XTT reagent (XTT proliferation kit II, Sigma Aldrich). NO production (Griess reaction) and metabolic activity of the cells (XTT formazan product) were photometrically measured. Tests were performed in three independent experiments, each in duplicate.
as §3

NF-κB = experiment: NF-κB-driven luciferase reporter gene transactivation in TNF-α-stimulated HEK293/NF-κB-luc cells; type: cell-based; details: for NFκB % Inhibition (30 µM) / inhibition at 30 µM / IC50: HEK/NFκB-luc cells stimulated with TNF-α; for NFκB % Inhibition (30 µM) / inhibition at 30 µM: means ± SD of 4 replicates; for effect on NF-κB activation: pure compound, screening 30 µM; for inhibition at 30 µM / IC50: Homo sapiens, HEK293
Experimental: as §1, §2
Transactivation activity of a NF-κB-driven luciferase reporter gene was determined in TNF-α (2 ng/mL)-stimulated HEK293/NF-κB-luc cells (Panomics, RC0014), using 5 µM parthenolide (Sigma-Aldrich, St. Louis, MO, USA) as positive control. Differences in cell viability were detected by comparing the fluorescence of vehicle-treated cells and cells treated with sample solutions upon staining with CellTracker Green CMFDA (C2925; Invitrogen), a fluorescent probe that is retained inside living cells. Screening samples were tested in three independent experiments, each performed in quadruplicate.
as §3

HUVECtert cells = experiment: Cell viability of HUVECtert cells (XTT); type: cell-based; parameters: key: ^+ compound significantly impaired cell viability at concentration of 30 µM; details: 30 µM, decrease of viability by more than 30%
Experimental: Effects on IL-8 expression were tested in hTERT-immortalized HUVECtert cells stimulated with lipopolysaccharide (LPS, 100 ng/mL, Sigma-Aldrich), with BAY 11-7082 (5 µM) as positive control. Activity screening was performed in sextuplicate. Impact of test samples on cell viability was determined after 6 h of stimulation by XTT. Incubation medium was removed, and 40 µL serum-free medium, containing XTT (Thermo Fisher Scientific, final concentration 200 µg/mL) and phenazine methyl sulfate (TCI Europe N.V., final concentration: 25 µM) were added to each well. After incubation for 2 h, absorbance was measured at 450 nm. Samples decreasing cell viability by more than 30% were considered to negatively influence cell viability.

[1] = LPS/IFNγ-stimulated RAW macrophages
[2] = Mus musculus, Macrophage, LPS/IFNγ-stimulated RAW macrophages

SMILES	effect on NF-κB activation (NF-κB)	inhibition at 30 µM (IL-8 expression; 30 µM) [%]	inhibition at 30 µM (NO production; [2]) [%]	inhibition at 30 µM (NF-κB; 30 µM) [%]	IC50 (NF-κB) [µM]	other results
C=C[C@H]1[C@H](O[C@@H]2O[C@H](CO)[C@@H](O)[C@H](O)[C@H]2O)OC=C(C(=O)OC)[C@H]1CC(=O)O [Compound 4, Secoxyloganin, reference compound]	–	–	–	–	–	IL-8 % Inhibition (30 µM) (IL-8 expression; 30 µM): −0.96 ± 6.01%; NO % Inhibition (30 µM) (NO production; [1]): 5.85 ± 4.58%; NFκB % Inhibition (30 µM) (NF-κB; 30 µM): −17.25 ± 9.25%
O=c1cc(-c2ccc(O)c(O)c2)oc2cc(O[C@@H]3O[C@H](CO)[C@@H](O)[C@H](O)[C@H]3O)cc(O)c12 [Compound 7, luteolin-7-O-glucoside, reference compound]	no activity	–	–	–	–	IL-8 % Inhibition (30 µM) (IL-8 expression; 30 µM): 7.42 ± 2.04%; effect on IL-8 expression (IL-8 expression): no activity; NO % Inhibition (30 µM) (NO production; [1]): 4.68 ± 9.82%; effect on NO production (NO production): no activity; NFκB % Inhibition (30 µM) (NF-κB; 30 µM): 0.68 ± 4.29%
O=c1cc(-c2ccc(O)c(O)c2)oc2cc(O)cc(O)c12 [Compound 18, luteolin, reference compound]	–	74.8 ± 2.15	56.4 ± 12.7	95.83 ± 0.01	6.84	IC50 (NO production; [2]): 31.8 µM
O=c1cc(-c2ccc(O)cc2)oc2cc(O)cc(O)c12 [Compound 21, apigenin]	–	64.8 ± 3.03	24.3 ± 10.8	–	–	IC50 (IL-8 expression): 18.9 µM
COc1cc(-c2cc(=O)c3c(OC)cc(O)cc3o2)cc(OC)c1OC [Compound 22, 7-hydroxy-5-methoxy-2-(3,4,5-trimethoxyphenyl)-chromen-4-one]	–	13.2 ± 2.49	8.22 ± 11.9	51.1 ± 2.86	–	effect on NF-κB activation (NF-κB; listed as 7-hydroxy-5,3′,4′,5′-tetramethoxyflavone): weak inhibition
O=c1cc(-c2ccc(O)cc2)oc2c(-c3c(O)cc(O)c4c(=O)cc(-c5ccc(O)cc5)oc34)c(O)cc(O)c12 [Compound 26, 5,7,5′,7,-Tetrahydroxy-2,2′-bis-(4-hydroxy-phenyl)-[8,8′]bichromenyl-4,4′-dione]	–	-2.05 ± 3.02	9.61 ± 11.4	3.42 ± 3.15	–	–
COc1cc(-c2cc(=O)c3c(O)cc(O)c(-c4c(O)cc(O)c5c(=O)cc(-c6ccc(O)cc6)oc45)c3o2)ccc1O [Compound 27, 5,7,5′,7,-Tetrahydroxy-2-(4-hydroxy3-methoxy-phenyl)-2′-(4-hydroxy-phenyl)-[8,8′]bichromenyl-4,4′-dione]	moderately inhibited	3.5 ± 4.58	1.45 ± 7.78	78.1 ± 8.86	19.6	–
COc1cc(-c2cc(=O)c3c(O)cc(O)c(-c4c(O)cc(O)c5c(=O)cc(-c6ccc(O)c(OC)c6)oc45)c3o2)ccc1O [Compound 29, 5,7,5′,7,-Tetrahydroxy-2,2′-bis-(4-hydroxy-3-methoxy-phenyl)-[8,8′]bichromenyl-4,4′-dione]	–	2.97 ± 9.92	-0.85 ± 3.84	31.2 ± 15.5	–	NF-κB Activity (NF-κB; class from Table 5 data, 30 µM): (a)
O=c1cc(-c2ccc(O)c(-c3c(O)cc(O)c4c(=O)cc(-c5ccc(O)cc5)oc34)c2)oc2cc(O)cc(O)c12 [Compound 32, amentoflavone, reference compound]	potently inhibited	9.35 ± 2.78	7.06 ± 10.6	90.8 ± 3.43	6.45	–
COc1ccc(-c2cc(=O)c3c(O)cc(O)c(-c4cc(-c5cc(=O)c6c(O)cc(O)cc6o5)ccc4O)c3o2)cc1 [Compound 33, podocarpusflavone A, reference compound]	potently inhibited	40.2 ± 29.8	3.42 ± 3.94	99.2 ± 1.25	3.44	IC50 (IL-8 expression): 47.9 µM; effect on IL-8 expression (IL-8 expression): moderately inhibited
C=Cc1c(C)c2cc3nc(c4c5[nH]c(cc6nc(cc1[nH]2)C(C)=C6CC)c(C)c5C(=O)[C@@H]4C(=O)OC)[C@@H](CCC(=O)O)[C@@H]3C [Compound 52, pheophorbide A, reference compound]	pronounced inhibition	95.8	5.48 ± 7.55	74.7 ± 13.6	3.04	IL-8 Activity (IL-8 expression; class from Table 5 data, 30 µM): a/ct; effect on IL-8 expression (IL-8 expression): inhibited IL-8 production; effect on NO production (NO production): did not inhibit; impaired cell viability (flag, IL-8 assay) (HUVECtert cells): +
